20 compounds from patent publication US9353090B2, “Heterocyclic carboxylic acids as activators of soluble guanylate cyclase” (Boehringer Ingelheim International GmbH, priority 2014, dated 2016) can be followed below.

Converted amounts (≈) assume the structure as drawn.

For series [1], the target named is human soluble guanylate cyclase alpha 1 and beta 1 subunits (sGC) (Homo sapiens (Human), UniProt Q02108+Q02153). The experiment in a line: sGC cellular activator assay (cGMP, HTRF), in the presence and absence of 50% human serum. The class given is cell-based. Particulars: CHO cells stably expressing human sGC alpha 1/beta 1, preincubated with 40 microM ODQ; cGMP by HTRF; Table 2 does not state whether with or without 50% human serum. The procedure, abridged: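 First, CHO-sGC (human α1β1) cells get 1 h ODQ at 40 microM with IBMX and 0.1% BSA. Finally, cGMP is quantified by HTRF and EC50 computed.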
On the technique in general: In TR-FRET formats the signal depends on donor and acceptor labels being close together.

A short description of series [2]: Human liver microsome (HLM) metabolic stability assay. Format: in vitro ADME. As to conditions: human liver microsomes. The procedure, abridged: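 Remaining parent measured by LC/MS/MS (ESI, MRM) at 5, 15, 30 and 60 min relative to 0 min. Incubation: 1 uM compound, HLMs, NADPH-started, 37° C., 60 min total, single replicate. Slope of ln(% remaining) gives t1/2 = 0.693/slope, then CLint, CLh and % Qh.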
(Microsomes from liver hold many membrane-bound enzymes, among them those of drug oxidation.)

Series [3] in a line: physchem. As to conditions: kinetic from dmso stock.
Where [4] appears, read: pH 2.2, aqueous buffer, Solubility (pH 2.2).
The mark [5] stands for this setting: pH 4.5, aqueous buffer, Solubility (pH 4.5).
Setting [6] is: pH 6.8, aqueous buffer, Solubility (pH 6.8).

Chain of human soluble guanylate cyclase alpha 1 and beta 1 subunits (sGC) (Q02108 whole entry partner): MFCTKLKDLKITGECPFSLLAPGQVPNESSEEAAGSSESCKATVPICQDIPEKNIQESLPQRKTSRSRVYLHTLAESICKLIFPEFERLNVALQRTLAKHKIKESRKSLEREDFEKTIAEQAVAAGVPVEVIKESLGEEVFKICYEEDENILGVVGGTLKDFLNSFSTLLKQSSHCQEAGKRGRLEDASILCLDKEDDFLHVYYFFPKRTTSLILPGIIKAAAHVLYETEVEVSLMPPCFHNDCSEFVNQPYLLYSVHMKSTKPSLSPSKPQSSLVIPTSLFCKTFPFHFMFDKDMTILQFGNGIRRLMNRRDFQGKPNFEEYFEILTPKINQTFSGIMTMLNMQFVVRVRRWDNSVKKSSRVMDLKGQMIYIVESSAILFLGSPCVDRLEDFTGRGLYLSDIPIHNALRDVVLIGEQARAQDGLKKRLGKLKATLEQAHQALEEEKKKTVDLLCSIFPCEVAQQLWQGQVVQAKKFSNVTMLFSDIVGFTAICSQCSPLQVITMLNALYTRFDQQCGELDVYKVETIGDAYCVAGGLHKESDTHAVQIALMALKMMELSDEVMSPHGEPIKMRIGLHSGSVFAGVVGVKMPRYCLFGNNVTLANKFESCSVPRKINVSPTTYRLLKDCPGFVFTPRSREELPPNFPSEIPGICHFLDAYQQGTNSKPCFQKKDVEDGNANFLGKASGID
Chain of human soluble guanylate cyclase alpha 1 and beta 1 subunits (sGC) (Q02153 whole entry): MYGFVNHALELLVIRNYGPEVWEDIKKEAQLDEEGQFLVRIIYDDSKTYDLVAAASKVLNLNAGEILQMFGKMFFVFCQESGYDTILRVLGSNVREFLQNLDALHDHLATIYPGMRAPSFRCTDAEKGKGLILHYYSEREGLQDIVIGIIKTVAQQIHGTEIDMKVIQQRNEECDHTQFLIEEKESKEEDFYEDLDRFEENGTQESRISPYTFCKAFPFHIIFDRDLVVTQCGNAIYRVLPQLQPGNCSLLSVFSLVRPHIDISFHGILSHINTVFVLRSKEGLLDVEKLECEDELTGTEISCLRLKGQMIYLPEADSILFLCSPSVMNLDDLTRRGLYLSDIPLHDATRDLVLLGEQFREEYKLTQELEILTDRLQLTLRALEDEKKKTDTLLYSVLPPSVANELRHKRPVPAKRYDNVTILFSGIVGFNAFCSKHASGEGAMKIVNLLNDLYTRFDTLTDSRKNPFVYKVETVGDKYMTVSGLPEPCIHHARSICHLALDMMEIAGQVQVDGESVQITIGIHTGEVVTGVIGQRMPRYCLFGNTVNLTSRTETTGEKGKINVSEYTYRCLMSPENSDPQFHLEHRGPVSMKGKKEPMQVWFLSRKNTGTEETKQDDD

By EC50 is commonly meant the concentration needed to bring the measured effect to its halfway point. Low readings indicate a more potent agent, high ones a less potent agent. As usually defined, the solubility is the concentration that dissolves in the medium under given conditions. Higher therefore signals much dissolved substance. Turning to `CO[C@@H]1CN(c2cccc(-c3cccc(C)c3OCc3ccc4c(c3C)CCN(C3CCOC3)CC4)n2)CC[C@@H]1C(=O)O` (stereo partly shown) [Compound 283], a half-maximal response in series [1] (EC50) required 4 nM. The “Metabolic stability (Qh %), % hepatic blood flow” value (“Metabolic stability (Qh %)” below) in series [2] was less than 24%. For the same compound, the solubility at 24 h in series [3] (setting [4]) is 124 µg/mL (≈ 212 µM); in series [3] (setting [5]), 89.4 µg/mL (≈ 153 µM); in series [3] (setting [6]), 68.4 µg/mL (≈ 117 µM).
For `CCO[C@@H]1CN(c2cccc(-c3cc(C)ccc3OCc3ccc4c(c3C)CCN(C3CCOCC3)CC4)n2)CC[C@@H]1C(=O)O` [Compound 240] the same measures were 5 nM, 73%, 123 µg/mL (≈ 200 µM), 118 µg/mL (≈ 193 µM) and 117 µg/mL (≈ 190 µM).
As to `COCc1cc(COc2c(C)cccc2-c2cccc(N3C[C@@H]4C[C@]4(C(=O)O)[C@H]3COC)n2)cc2c1CN(C1COC1)CC2` [Compound 281], the EC50 in series [1] was 267 nM. Besides, the “Metabolic stability (Qh %)” value in series [2] is 25%. Moreover, the solubility at 24 h in series [3] (setting [4]) stood at 120 µg/mL (≈ 200 µM); in series [3] (setting [5]), 87.4 µg/mL (≈ 146 µM); in series [3] (setting [6]) it was 83.1 µg/mL (≈ 139 µM).
`O=C(O)[C@@]12CCN(c3nc(-c4ccccc4OCc4ccc5c(c4)CCN(C4CCOCC4)C5)cs3)C[C@@H]1C2` [Compound 82] returned an EC50 in series [1] of 10 nM. The “Metabolic stability (Qh %)” value in series [2] is given as less than 24%. The solubility at 24 h came to 100 µg/mL (≈ 183 µM) in series [3] (setting [4]), 40 µg/mL (≈ 73.3 µM) in series [3] (setting [5]) and 22 µg/mL (≈ 40.3 µM) in series [3] (setting [6]).
For `COCc1cc(COc2c(C)cccc2-c2cccc(N3CC[C@H](C(=O)O)[C@H](OC)C3)n2)cc2c1CN(C1CCOCC1)CC2` [Compound 286] the same measures were 160 nM, less than 24%, 149 µg/mL (≈ 242 µM), 119 µg/mL (≈ 193 µM) and 88.5 µg/mL (≈ 144 µM).
`Cc1ccc(OCc2cc(C)c3c(c2)CCN(CC2COCCO2)C3)c(-c2csc(N3CC[C@@]4(C(=O)O)C[C@H]4C3)n2)c1` (stereo partly shown) [Compound 120] yielded an EC50 in series [1] of 6 nM. Moreover, in series [2], the “Metabolic stability (Qh %)” value is less than 24%. The solubility at 24 h stood at 130 µg/mL (≈ 220 µM) in series [3] (setting [4]), 27 µg/mL (≈ 45.8 µM) in series [3] (setting [5]) and 2.2 µg/mL (≈ 3.73 µM) in series [3] (setting [6]).
In series [1], `Cc1ccc(OCc2ccc3c(c2)CCN(C2CCOCC2)CC3)c(-c2csc(N3C[C@@H]4C[C@]4(C(=O)O)C3)n2)c1` [Compound 147] gave an EC50 of 49 nM. Further, in series [2], the “Metabolic stability (Qh %)” value is given as less than 24%. Further, the solubility at 24 h in series [3] (setting [4]) is more than 140 µg/mL; in series [3] (setting [5]), less than 0.1 µg/mL; in series [3] (setting [6]), less than 0.1 µg/mL.
In turn, `CO[C@H]1CN(c2nc(-c3cccc(C)c3OCc3cc(F)c4c(c3)CCN(C3CCOCC3)C4)cs2)CC[C@H]1C(=O)O` [Compound 172] showed a concentration for a half-maximal effect (EC50) in series [1] of 7 nM. In series [2], the “Metabolic stability (Qh %)” value was less than 24%. Further, the solubility at 24 h worked out at 130 µg/mL (≈ 218 µM) in series [3] (setting [4]), 98 µg/mL (≈ 165 µM) in series [3] (setting [5]) and 85 µg/mL (≈ 143 µM) in series [3] (setting [6]).
For `COCc1cc(COc2c(C)cccc2-c2cccc(N3CC[C@H](C(=O)O)[C@H](OC)C3)n2)cc2c1CN(C1CCOC1)CC2` (stereo partly shown) [Compound 284] the same measures were 231 nM, less than 24%, 129 µg/mL (≈ 215 µM), 103 µg/mL (≈ 171 µM) and 83.5 µg/mL (≈ 139 µM).
On to `CO[C@H]1CN(c2nc(-c3cccc(C)c3OCc3ccc4c(c3)C(C)(C)CN(C3CCOCC3)CC4)cs2)CC[C@H]1C(=O)O` [Compound 323], for which a half-maximal effect in series [1] (EC50) was put at 2 nM. Besides, the “Metabolic stability (Qh %)” value in series [2] came to 45%. Also, the solubility at 24 h in series [3] (setting [4]) was found to be 131 µg/mL (≈ 211 µM); in series [3] (setting [5]), 84.3 µg/mL (≈ 136 µM); in series [3] (setting [6]), 65.2 µg/mL (≈ 105 µM).
In the case of `Cc1cccc(-c2cccc(N3C[C@@H]4C[C@]4(C(=O)O)C3)n2)c1OCc1ccc2c(c1C)CCN(C1CCOCC1)C2` [Compound 21], a half-maximal effect in series [1] (EC50) was put at 11 nM. Moreover, in series [2], the “Metabolic stability (Qh %)” value is recorded as less than 24%. In addition, the solubility at 24 h in series [3] (setting [4]) is 120 µg/mL (≈ 217 µM); in series [3] (setting [5]), 110 µg/mL (≈ 199 µM); in series [3] (setting [6]) it was 70 µg/mL (≈ 126 µM).
For the compound `CO[C@H]1CN(c2nc(-c3cccc(C)c3OCc3ccc4c(c3)[C@H](C)CN(C3CCOCC3)CC4)cs2)CC[C@H]1C(=O)O` [Compound 313], in series [1], the EC50 was 7 nM. In series [2], the “Metabolic stability (Qh %)” value is reported as less than 24%. Moreover, the solubility at 24 h in series [3] (setting [4]) was 141 µg/mL (≈ 233 µM); in series [3] (setting [5]), 136 µg/mL (≈ 225 µM); in series [3] (setting [6]), 133 µg/mL (≈ 219 µM).
For `CO[C@H]1CN(c2cccc(-c3cccc(C)c3OCc3cc(F)c4c(c3)CCN(C3COC3)CC4)n2)CC[C@H]1C(=O)O` [Compound 274] the same measures were 4 nM, less than 24%, 114 µg/mL (≈ 198 µM), 72 µg/mL (≈ 125 µM) and 65.5 µg/mL (≈ 114 µM).
The compound `COC[C@H]1N(c2cccc(-c3cccc(C)c3OCc3cnc4c(c3)CCN(C3CCOCC3)CC4)n2)C[C@@H]2C[C@@]21C(=O)O` [Compound 317] displayed a concentration giving a half-maximal response (EC50) in series [1] of 245 nM. In series [2], the “Metabolic stability (Qh %)” value is given as less than 24%. In addition, the solubility at 24 h in series [3] (setting [4]) amounted to 158 µg/mL (≈ 263 µM); in series [3] (setting [5]), 152 µg/mL (≈ 253 µM); in series [3] (setting [6]), 139 µg/mL (≈ 232 µM).
For `Cc1cccc(-c2csc(N3C[C@@H]4C[C@]4(C(=O)O)C3)n2)c1OCc1cc(C#N)c2c(c1)CCN(C1COC1)C2` [Compound 141] the same measures were 34 nM, less than 24%, 110 µg/mL (≈ 203 µM), 38 µg/mL (≈ 70 µM) and 81 µg/mL (≈ 149 µM).
The compound `COC[C@H]1N(c2nccc(-c3cccc(C)c3OCc3cc(C)c4c(c3)CCN(C3CCOCC3)C4)n2)CC2C[C@@]21C(=O)O` (stereo partly shown) [Compound 237] came in with an EC50 in series [1] of 42 nM. The “Metabolic stability (Qh %)” value in series [2] was less than 24%. Also, the solubility at 24 h was 156 µg/mL (≈ 260 µM) in series [3] (setting [4]), 136 µg/mL (≈ 227 µM) in series [3] (setting [5]) and 143 µg/mL (≈ 238 µM) in series [3] (setting [6]).
In turn, `Cc1cccc(-c2csc(N3C[C@@H]4C[C@]4(C(=O)O)C3)n2)c1OCc1ccc2c(c1)CCN(C1CCOCC1)C2` [Compound 135] yielded a concentration giving a half-maximal response (EC50) in series [1] of 39 nM. The “Metabolic stability (Qh %)” value in series [2] is reported as less than 24%. Moreover, the solubility at 24 h was 100 µg/mL (≈ 183 µM) in series [3] (setting [4]), 70 µg/mL (≈ 128 µM) in series [3] (setting [5]) and 56 µg/mL (≈ 103 µM) in series [3] (setting [6]).
Compound `CO[C@@H]1CN(c2cccc(-c3cc(C)ccc3OCc3cc(C)c4c(c3)CCN(C3CCOC3)C4)n2)CC[C@@H]1C(=O)O` (stereo partly shown) [Compound 77] yielded an EC50 in series [1] of 71 nM. Also, the “Metabolic stability (Qh %)” value in series [2] is given as less than 24%. Further, the solubility at 24 h in series [3] (setting [4]) was determined as 110 µg/mL (≈ 192 µM); in series [3] (setting [5]), 95 µg/mL (≈ 166 µM); in series [3] (setting [6]) it was 64 µg/mL (≈ 112 µM).
Turning to `Cc1cccc(-c2cccc(N3C[C@@H]4C[C@]4(C(=O)O)C3)n2)c1OCc1ccc2c(c1)CCN(C1COC1)CC2` [Compound 32], in series [1], the midpoint of the response, the EC50, lay at 4 nM. The “Metabolic stability (Qh %)” value in series [2] is on record as less than 24%. For the same compound, the solubility at 24 h in series [3] (setting [4]) amounted to 120 µg/mL (≈ 228 µM); in series [3] (setting [5]), 88 µg/mL (≈ 167 µM); in series [3] (setting [6]) it was 50 µg/mL (≈ 95.1 µM).
`COc1cc(COc2c(C)cccc2-c2csc(N3CC[C@@H](C(=O)O)[C@@H](OC)C3)n2)c(F)c2c1CN(C1CCOCC1)CC2` [Compound 252] came in with an EC50 in series [1] of 2 nM. The “Metabolic stability (Qh %)” value in series [2] was less than 24%. The solubility at 24 h came out at 133 µg/mL (≈ 212 µM) in series [3] (setting [4]), 81.7 µg/mL (≈ 131 µM) in series [3] (setting [5]) and 72.9 µg/mL (≈ 116 µM) in series [3] (setting [6]).
